# Test results from patent publication US12077503B2, “Substituted cyclic amides and their use as herbicides” (FMC CORPORATION, priority 2015, dated 2024).
# How the values were obtained:
# Format in all cases: in vivo
# [1] = system: corn (Zea mays); experiment: Test G Post-Emergence Protocol; settings: Zea mays, post-emergence, 312 h, read-out: Corn damage rating; for plant injury at 15.625 g/ha: 15.625 g ai/ha, evaluated after 13 days (100=total damage to plant; 0=no damage to plant); for plant injury at 62.5 g/ha: 62.5 g ai/ha; for plant injury at 62.5 g/ha / plant injury at 250 g/ha: evaluated after 13 days, 100=total damage to plant, 0=no damage to plant; for plant injury at 250 g/ha: 250 g ai/ha
# In short: (§1)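 Damage was rated 13 days after treatment from 0 (none) to 100 (plant killed). Compound was applied as a spray at 15.625, 62.5 or 250 g/ha in 50:50 acetone/water containing 0.5% Tween 20, onto 8-day-old potted plants kept in a glasshouse (24/16 °C, 14 h light, 65% humidity).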
# [2] = system: ivy-leaved morning glory (Ipomoea hederacea); experiment: Test G Post-Emergence Protocol; settings: Ipomoea, post-emergence, 312 h, read-out: Morningglory, Ivy-leaved damage rating; for pest or weed control at 15.625 g/ha: 15.625 g ai/ha, evaluated after 13 days (100=total damage to plant; 0=no damage to plant); for pest or weed control at 62.5 g/ha: 62.5 g ai/ha; for pest or weed control at 62.5 g/ha / pest or weed control at 250 g/ha: evaluated after 13 days, 100=total damage to plant, 0=no damage to plant; for pest or weed control at 250 g/ha: 250 g ai/ha
# In short: as §1
# [3] = system: velvetleaf (Abutilon theophrasti); experiment: Test G Post-Emergence Protocol; settings: Abutilon theophrasti, post-emergence, 312 h, read-out: Velvetleaf damage rating; for pest or weed control at 15.625 g/ha: 15.625 g ai/ha, evaluated after 13 days (100=total damage to plant; 0=no damage to plant); for pest or weed control at 62.5 g/ha: 62.5 g ai/ha; for pest or weed control at 62.5 g/ha / pest or weed control at 250 g/ha: evaluated after 13 days, 100=total damage to plant, 0=no damage to plant; for pest or weed control at 250 g/ha: 250 g ai/ha
# In short: as §1
# [4] = system: giant foxtail (Setaria faberi); experiment: Test G Post-Emergence Protocol; settings: Setaria faberi, post-emergence, 312 h, read-out: Foxtail, Giant damage rating; for pest or weed control at 15.625 g/ha: 15.625 g ai/ha, evaluated after 13 days (100=total damage to plant; 0=no damage to plant); for pest or weed control at 62.5 g/ha: 62.5 g ai/ha; for pest or weed control at 62.5 g/ha / pest or weed control at 250 g/ha: evaluated after 13 days, 100=total damage to plant, 0=no damage to plant; for pest or weed control at 250 g/ha: 250 g ai/ha
# In short: as §1
# [5] = system: barnyardgrass (Echinochloa crus-galli); experiment: Test G Post-Emergence Protocol; settings: Echinochloa crus-galli, post-emergence, 312 h, read-out: Barnyardgrass damage rating; for pest or weed control at 15.625 g/ha: 15.625 g ai/ha, evaluated after 13 days (100=total damage to plant; 0=no damage to plant); for pest or weed control at 62.5 g/ha: 62.5 g ai/ha; for pest or weed control at 62.5 g/ha / pest or weed control at 250 g/ha: evaluated after 13 days, 100=total damage to plant, 0=no damage to plant; for pest or weed control at 250 g/ha: 250 g ai/ha
# In short: as §1
# [6] = system: redroot pigweed (Amaranthus retroflexus); experiment: Test G Post-Emergence Protocol; settings: Amaranthus retroflexus, post-emergence, 312 h, read-out: Pigweed, Redroot damage rating; for pest or weed control at 15.625 g/ha: 15.625 g ai/ha, evaluated after 13 days (100=total damage to plant; 0=no damage to plant); for pest or weed control at 62.5 g/ha: 62.5 g ai/ha; for pest or weed control at 62.5 g/ha / pest or weed control at 250 g/ha: evaluated after 13 days, 100=total damage to plant, 0=no damage to plant; for pest or weed control at 250 g/ha: 250 g ai/ha
# In short: as §1
# [7] = system: corn (Zea mays); experiment: Test G Pre-Emergence Protocol; settings: Zea mays, pre-emergence, 312 h, evaluated after 13 days; for plant injury at 15.625 g/ha: 15.625 g ai/ha; for plant injury at 15.625 g/ha / plant injury at 250 g/ha: read-out: Corn damage rating (100=total damage to plant; 0=no damage to plant); for plant injury at 62.5 g/ha: 62.5 g ai/ha, 100=total damage to plant, 0=no damage to plant, read-out: Corn damage rating; for plant injury at 250 g/ha: 250 g ai/ha
# In short: (§2)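 Spraying took place one day after sowing, at 15.625, 62.5 or 250 g/ha, using an acetone/water (50:50) spray solution containing 0.5% Tween 20. Plants were kept under glasshouse conditions (24/16 °C, 14 h light, 65% humidity, watered twice daily), and injury was rated 0–100 at day 13.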
# [8] = system: ivy-leaved morning glory (Ipomoea hederacea); experiment: Test G Pre-Emergence Protocol; settings: Ipomoea, pre-emergence, 312 h, evaluated after 13 days; for pest or weed control at 15.625 g/ha: 15.625 g ai/ha; for pest or weed control at 15.625 g/ha / pest or weed control at 250 g/ha: read-out: Morningglory, Ivy-leaved damage rating (100=total damage to plant; 0=no damage to plant); for pest or weed control at 62.5 g/ha: 62.5 g ai/ha, 100=total damage to plant, 0=no damage to plant, read-out: Morningglory, Ivy-leaved damage rating; for pest or weed control at 250 g/ha: 250 g ai/ha
# In short: as §2
# [9] = system: velvetleaf (Abutilon theophrasti); experiment: Test G Pre-Emergence Protocol; settings: Abutilon theophrasti, pre-emergence, 312 h, evaluated after 13 days; for pest or weed control at 15.625 g/ha: 15.625 g ai/ha; for pest or weed control at 15.625 g/ha / pest or weed control at 250 g/ha: read-out: Velvetleaf damage rating (100=total damage to plant; 0=no damage to plant); for pest or weed control at 62.5 g/ha: 62.5 g ai/ha, 100=total damage to plant, 0=no damage to plant, read-out: Velvetleaf damage rating; for pest or weed control at 250 g/ha: 250 g ai/ha
# In short: as §2
# [10] = system: giant foxtail (Setaria faberi); experiment: Test G Pre-Emergence Protocol; settings: Setaria faberi, pre-emergence, 312 h, evaluated after 13 days; for pest or weed control at 15.625 g/ha: 15.625 g ai/ha; for pest or weed control at 15.625 g/ha / pest or weed control at 250 g/ha: read-out: Foxtail, Giant damage rating (100=total damage to plant; 0=no damage to plant); for pest or weed control at 62.5 g/ha: 62.5 g ai/ha, 100=total damage to plant, 0=no damage to plant, read-out: Foxtail, Giant damage rating; for pest or weed control at 250 g/ha: 250 g ai/ha
# In short: as §2
# [11] = system: barnyardgrass (Echinochloa crus-galli); experiment: Test G Pre-Emergence Protocol; settings: Echinochloa crus-galli, pre-emergence, 312 h, evaluated after 13 days; for pest or weed control at 15.625 g/ha: 15.625 g ai/ha; for pest or weed control at 15.625 g/ha / pest or weed control at 250 g/ha: read-out: Barnyardgrass damage rating (100=total damage to plant; 0=no damage to plant); for pest or weed control at 62.5 g/ha: 62.5 g ai/ha, 100=total damage to plant, 0=no damage to plant, read-out: Barnyardgrass damage rating; for pest or weed control at 250 g/ha: 250 g ai/ha
# In short: as §2
# [12] = system: redroot pigweed (Amaranthus retroflexus); experiment: Test G Pre-Emergence Protocol; settings: Amaranthus retroflexus, pre-emergence, 312 h, evaluated after 13 days; for pest or weed control at 15.625 g/ha: 15.625 g ai/ha; for pest or weed control at 15.625 g/ha / pest or weed control at 250 g/ha: read-out: Pigweed, Redroot damage rating (100=total damage to plant; 0=no damage to plant); for pest or weed control at 62.5 g/ha: 62.5 g ai/ha, 100=total damage to plant, 0=no damage to plant, read-out: Pigweed, Redroot damage rating; for pest or weed control at 250 g/ha: 250 g ai/ha
# In short: as §2
SMILES,plant injury at 15.625 g/ha [1],plant injury at 62.5 g/ha [1],plant injury at 250 g/ha [1],pest or weed control at 15.625 g/ha [2],pest or weed control at 62.5 g/ha [2],pest or weed control at 250 g/ha [2],pest or weed control at 15.625 g/ha [3],pest or weed control at 62.5 g/ha [3],pest or weed control at 250 g/ha [3],pest or weed control at 15.625 g/ha [4],pest or weed control at 62.5 g/ha [4],pest or weed control at 250 g/ha [4],pest or weed control at 15.625 g/ha [5],pest or weed control at 62.5 g/ha [5],pest or weed control at 250 g/ha [5],pest or weed control at 15.625 g/ha [6],pest or weed control at 62.5 g/ha [6],pest or weed control at 250 g/ha [6],plant injury at 15.625 g/ha [7],plant injury at 62.5 g/ha [7],further results
CN1C[C@H](c2cccc(C(F)(F)F)c2)[C@@H](C(=O)Nc2cccc3c2S(=O)(=O)CC3)C1=O (racemic) [Compound 1738],0%,0%,0%,0%,0%,0%,0%,10%,10%,20%,40%,70%,0%,40%,80%,20%,10%,10%,0%,0%,plant injury at 250 g/ha [7]: 0%; pest or weed control at 15.625 g/ha [8]: 0%; pest or weed control at 62.5 g/ha [8]: 0%; pest or weed control at 250 g/ha [8]: 0%; pest or weed control at 15.625 g/ha [9]: 0%; pest or weed control at 62.5 g/ha [9]: 0%; pest or weed control at 250 g/ha [9]: 0%; pest or weed control at 15.625 g/ha [10]: 0%; pest or weed control at 62.5 g/ha [10]: 0%; pest or weed control at 250 g/ha [10]: 70%; pest or weed control at 15.625 g/ha [11]: 0%; pest or weed control at 62.5 g/ha [11]: 0%; pest or weed control at 250 g/ha [11]: 70%; pest or weed control at 15.625 g/ha [12]: 0%; pest or weed control at 62.5 g/ha [12]: 0%; pest or weed control at 250 g/ha [12]: 0%
Cc1ccc([C@H]2CN(C)C(=O)[C@@H]2C(=O)Nc2cccc3c2S(=O)(=O)CC3)cc1 (racemic) [Compound 1739],0%,0%,0%,0%,0%,0%,0%,0%,0%,0%,0%,0%,0%,0%,0%,0%,0%,0%,0%,0%,plant injury at 250 g/ha [7]: 0%; pest or weed control at 15.625 g/ha [8]: 0%; pest or weed control at 62.5 g/ha [8]: 0%; pest or weed control at 250 g/ha [8]: 0%; pest or weed control at 15.625 g/ha [9]: 0%; pest or weed control at 62.5 g/ha [9]: 0%; pest or weed control at 250 g/ha [9]: 0%; pest or weed control at 15.625 g/ha [10]: 0%; pest or weed control at 62.5 g/ha [10]: 0%; pest or weed control at 250 g/ha [10]: 0%; pest or weed control at 15.625 g/ha [11]: 0%; pest or weed control at 62.5 g/ha [11]: 0%; pest or weed control at 250 g/ha [11]: 0%; pest or weed control at 15.625 g/ha [12]: 0%; pest or weed control at 62.5 g/ha [12]: 0%; pest or weed control at 250 g/ha [12]: 0%
